The results in this text go back to ChEMBL document CHEMBL1141252, “Antitrypanosomal activity of triterpenoids and sterols from the leaves of Strychnos spinosa and related compounds” (J Nat Prod, 2007).

For assay [1], the system named is Trypanosoma brucei brucei. Description: Antitrypanosomal activity against Trypanosoma brucei brucei bloodstream trypomastigotes by alamar blue assay. The assay is classed as functional, organism-based. For orientation: Alamar Blue is a resazurin reagent that responds to reducing activity.
The nature of assay [2]: Selectivity index, ratio of IC50 for mouse J774 cells to IC50 for Trypanosoma brucei brucei bloodstream trypomastigotes. The assay is classed as functional.
Assay [3] deals with J774. Description: Cytotoxicity against mouse J774 cells by alamar blue assay. Format: cell-based.
In assay [4] the test system is Trypanosoma cruzi. Description: Antitrypanosomal activity against South American Trypanosoma cruzi bloodstream trypomastigotes at 21 uM. Format: functional.
The subject of assay [5] is Trypanosoma cruzi. Description: Antitrypanosomal activity against South American Trypanosoma cruzi bloodstream trypomastigotes at 80.4 uM. Format: functional.
Assay [6] is described as follows: Cytotoxicity against human leukemia cells. The assay is classed as functional, cell-based. The note with it: Leukemia cell.
The nature of assay [7]: Cytotoxicity against human colon cancer cells. Format: functional, cell-based. To be noted: Cancer cell lines.
The nature of assay [8]: Cytotoxicity against human lung cancer cells. The assay is classed as functional, cell-based. To be noted: Cancer cell lines.
Assay [9] can be described thus: Cytotoxicity against mouse leukemic cells. Format: functional, cell-based. To be noted: Leukemic tumor cell line.
Assay [10] relates to Trypanosoma brucei rhodesiense. Description: Antitrypanosomal activity against Trypanosoma brucei rhodesiense bloodstream trypomastigotes. The assay is classed as functional, organism-based.

For orientation: IC50 means the concentration at which inhibition is half-maximal.

Active and inactive are the calls of the source. No cut-off for these calls is given here.

Take `Cc1ccc(C(=O)Nc2ccc(S(=O)(=O)O)c3cc(S(=O)(=O)O)cc(S(=O)(=O)O)c23)cc1NC(=O)c1cccc(NC(=O)Nc2cccc(C(=O)Nc3cc(C(=O)Nc4ccc(S(=O)(=O)O)c5cc(S(=O)(=O)O)cc(S(=O)(=O)O)c45)ccc3C)c2)c1` [SURAMIN]: the IC50 in [1] worked out at 0.041 µM.

As to `CC1(C)CC[C@]2(CO)CC[C@]3(C)C(=CC[C@@H]4[C@@]5(C)CC[C@H](O)C(C)(C)[C@@H]5CC[C@]43C)[C@@H]2C1` [ERYTHRODIOL], the “Ratio IC50” value in assay [2] was 4.2. The IC50 in [1] came out at 12 µM; in assay [3], 50.3 µM.

Consider `C=C(C)[C@@H](CC)CC[C@@H](C)[C@H]1CC[C@H]2[C@@H]3CC=C4C[C@@H](O)CC[C@]4(C)[C@H]3CC[C@]12C` [CLEROSTEROL], for which the “Ratio IC50” value in assay [2] is reported as more than 1.9. Moreover, the IC50 in assay [1] is 130 µM; in [3], more than 242 µM.

As for `C=C(C)[C@@H]1CC[C@]2(C(=O)O)CC[C@]3(C)[C@H](CC[C@@H]4[C@@]5(C)CC[C@H](O)C(C)(C)[C@@H]5CC[C@]43C)[C@@H]12` [BETULINIC ACID], the “Ratio IC50” value in assay [2] turned out to be 1.3. Moreover, the results for the IC50 in assay [1] and in assay [3] were 32.6 µM and 44 µM, respectively.

As for `CC1(C)CC[C@]2(C(=O)O)CC[C@]3(C)C(=CC[C@@H]4[C@@]5(C)CC[C@H](O)C(C)(C)[C@@H]5CC[C@]43C)[C@@H]2C1` [OLEANOLIC_ACID], the Activity in [4] and in [5] was 50% each time. Moreover, the “Ratio IC50” value in [2] came to 20.6. For the same molecule, the IC50 came to 6.4 µM in assay [1] and 130 µM in assay [3].

Consider `C=CC(O)(CC[C@@H](C)[C@H]1CC[C@H]2[C@@H]3CC=C4C[C@@H](O)CC[C@]4(C)[C@H]3CC[C@]12C)C(C)C` (some centres undefined) [SARINGOSTEROL], for which the “Ratio IC50” value in assay [2] was more than 30.3. In addition, the values for the IC50 in assay [1] and in assay [3] were 7.8 µM and more than 233 µM, respectively.

Regarding `C[C@H]1[C@H](C)CC[C@]2(C)CC[C@]3(C)C(=CC[C@@H]4[C@@]5(C)CC[C@H](O)C(C)(C)[C@@H]5CC[C@]43C)[C@H]12`, the “Ratio IC50” value in [2] is on record as 1.1. Further, the IC50 was 114 µM in [1] and 128 µM in assay [3].

Consider `CC[C@H](CC[C@@H](C)[C@H]1CC[C@H]2[C@@H]3CC[C@H]4C[C@@H](O)CC[C@]4(C)[C@H]3CC[C@]12C)C(C)C` [STIGMASTANOL], for which the IC50 in assay [1] and in assay [3] was more than 240 µM in each case.

Turning to `COc1cc2c(c(OC)c1OC)-c1ccc(OC)c(=O)cc1[C@@H](NC(C)=O)CC2` [COLCHICINE], the IC50 in assay [3] is 0.21 µM.

In the case of `C[C@H]1[C@H](C)CC[C@]2(CO)CC[C@]3(C)C(=CC[C@@H]4[C@@]5(C)CC[C@H](O)C(C)(C)[C@@H]5CC[C@]43C)[C@H]12` [UVAOL], the “Ratio IC50” value in [2] came out at 5.6. The results for the IC50 in assay [1] and in assay [3] were 27.8 µM and 156 µM, respectively.

On to `CC[C@H](/C=C/[C@@H](C)[C@H]1CC[C@H]2[C@@H]3CC=C4C[C@@H](O)CC[C@]4(C)[C@H]3CC[C@]12C)C(C)C` [STIGMASTEROL], for which the “Ratio IC50” value in assay [2] is recorded as more than 1.8. Further, the IC50 in assay [1] is 135 µM; in assay [3], more than 242 µM.

Turning to `C=C(C)[C@@H]1CC[C@]2(C)CC[C@]3(C)[C@H](CC[C@@H]4[C@@]5(C)CC[C@H](O)C(C)(C)[C@@H]5CC[C@]43C)[C@@H]12` [LUPEOL], the “Ratio IC50” value in assay [2] is more than 5.2. In addition, the concentration for half-maximal inhibition (IC50) is 45.3 µM in assay [1] and more than 234 µM in [3].

With `CC[C@H](CC[C@@H](C)[C@H]1CC[C@H]2[C@@H]3CC=C4C[C@@H](O)CC[C@]4(C)[C@H]3CC[C@]12C)C(C)C` [BETA-SITOSTEROL], the IC50 in [1] and in [3] was more than 241 µM in each case.

Take `C=CC(CC[C@@H](C)[C@H]1CC[C@H]2[C@@H]3CC=C4C[C@@H](O)CC[C@]4(C)[C@H]3CC[C@]12C)(OO)C(C)C` (some centres undefined): in assay [2], the “Ratio IC50” value turned out to be 5.2. For the same molecule, the IC50 in [6] was 0.7 µM; in assay [7], 0.7 µM; in [8], 0.7 µM; in assay [1] it was 3.2 µM; in assay [3] it was 16.4 µM; in assay [9], 0.7 µM.

For the molecule `C[C@H]1[C@H](C)CC[C@]2(C(=O)O)CC[C@]3(C)C(=CC[C@@H]4[C@@]5(C)CC[C@H](O)C(C)(C)[C@@H]5CC[C@]43C)[C@H]12` [URSOLIC ACID], the Activity in [4] and in assay [5] was 50% in each case. In addition, the “Ratio IC50” value in assay [2] worked out at 6. The IC50 turned out to be 2.2 µM in assay [1] and 13.1 µM in [3].

Take `CC1(C)CC[C@]2(C)CC[C@]3(C)C(=CC[C@@H]4[C@@]5(C)CC[C@H](O)C(C)(C)[C@@H]5CC[C@]43C)[C@@H]2C1` [beta-AMYRIN]: the outcome in [10] was inactive. For the same molecule, the “Ratio IC50” value in assay [2] is recorded as more than 1.8. The IC50 in [1] is 127 µM; in assay [3], more than 234 µM.

For the molecule `C=C(C)[C@@H]1CC[C@]2(CO)CC[C@]3(C)[C@H](CC[C@@H]4[C@@]5(C)CC[C@H](O)C(C)(C)[C@@H]5CC[C@]43C)[C@@H]12` [BETULIN], the “Ratio IC50” value in [2] worked out at 7.4. Also, the figures for the IC50 in assay [1] and in assay [3] were 8.9 µM and 67.1 µM, respectively.
